The record followed here is paper PMC6259751, “Investigating Spectrum of Biological Activity of 4- and 5-Chloro-2-hydroxy-N-[2-(arylamino)-1-alkyl-2-oxoethyl]benzamides” (Molecules, 2011).

The nature of data set [1]: Lipophilicity determination by RP-HPLC (capacity factor k / log k). The following applies: C18 column, MeOH 70% / H2O 30%, isocratic. In kind it is physicochemical. The procedure, abridged:
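Isocratic RP-HPLC on end-capped C18 column, MeOH/H2O 70:30, 1.0 mL/min, 30 °C, UV 210 nm. Dead time from unretained KI; k = (tR − tD)/tD, log k taken as lipophilicity index on log P scale. Calculated log P/Clog P from two programs also reported.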

The subject of data set [2] is Mycobacterium tuberculosis MTB CNCTC My 331/88. The data set is described as follows: In vitro antimycobacterial evaluation. To be noted: IC90 value. In kind it is cell-based.
The subject of data set [3] is Mycobacterium avium MA CNCTC My 330/88. The data set is described as follows: In vitro antimycobacterial evaluation. Format: cell-based. To be noted: IC90 value.
The test system of data set [4] is Mycobacterium kansasii MK CNCTC My 235/80. The data set is described as follows: In vitro antimycobacterial evaluation. In kind it is cell-based. The following applies: IC90 value.
The test system of data set [5] is Candida tropicalis 156. The data set is described as follows: In vitro antifungal susceptibility testing (broth microdilution). The following applies: M27-A2 for yeasts, IC80 value. In kind it is cell-based.
Data set [6] has as its system Trichophyton mentagrophytes 445. The data set is described as above. In kind it is cell-based. To be noted: M38-A for moulds, IC50 value, read-out: MIC TM.
The subject of data set [7] is photosynthetic electron transport (PET) in spinach chloroplasts. Briefly: Inhibition of photosynthetic electron transport (PET) in spinach chloroplasts. In kind it is biochemical, Spinacia oleracea L. To be noted: DCPIP photoreduction. The protocol:
Chloroplasts were prepared from spinach (Spinacia oleracea L.) according to Masarovicova and Kralova. The inhibition of photosynthetic electron transport (PET) in spinach chloroplasts was determined spectrophotometrically (Genesys 6, Thermo Scientific, USA), using an artificial electron acceptor 2,6-dichlorophenol-indophenol (DCIPP) according to Kralova et al., and the rate of photosynthetic electron transport was monitored as a photoreduction of DCPIP. The measurements were carried out in phosphate buffer (0.02 mol/L, pH 7.2) containing sucrose (0.4 mol/L), MgCl2 (0.005 mol/L) and NaCl (0.015 mol/L). The chlorophyll content was 30 mg/L in these experiments and the samples were irradiated (~100 W/m^2) from 10 cm distance with a halogen lamp (250 W) using a 4 cm water filter to prevent warming of the samples. The studied compounds were dissolved in DMSO due to their limited water solubility. […] The inhibitory efficiency of the studied compounds was expressed by IC50 values, i.e. by molar concentration of the compounds causing 50% decrease in the oxygen evolution rate relative to the untreated control.

The test system of data set [8] is Staphylococcus aureus CCM 4516/08. Briefly: In vitro antibacterial susceptibility testing (broth microdilution). To be noted: read-out: MIC SA. (In general: Broth dilution looks for growth in wells or tubes with falling amounts of substance.)
Data set [9] has as its system methicilin resistant Staphylococcus aureus H 5996/08. The data set is described as above. To be noted: MRSA, read-out: MIC MRSA.
Data set [10] has as its system Staphylococcus epidermidis H 6966/08. The description is as above. The following applies: read-out: MIC SE.
Data set [11] relates to Enterococcus sp. J 14365/08. The description is as above. To be noted: read-out: MIC EF.

By MIC is commonly meant the lowest concentration that inhibits growth of the organism. One may read the IC50 as the concentration that inhibits the measured activity by half. A lower IC50 goes with greater potency in that assay.

Structures are written as SMILES. Values after ≈ are worked out from the molar mass of the structure shown. Values joined by “and” are separate entries in the source; they are usually repeats but may differ in a detail not shown here. Equal entries are not always repeated. Where two headings read alike, the source gives them in different places. A value given as a limit tells only on which side of the number the result lay.

On to `CC(C)[C@H](NC(=O)c1cc(Cl)ccc1O)C(=O)Nc1cccc(Cl)c1` [8d], for which the log k in data set [1] amounted to 0.6124. The MIC was 32 µM (≈ 12.2 µg/mL) in data set [2] (14h); 62.5 µM (≈ 23.8 µg/mL) in data set [2] (21h); 125 µM (≈ 47.7 µg/mL) in [3] (14h); 125 µM (≈ 47.7 µg/mL) in data set [3] (21h); 62.5 µM (≈ 23.8 µg/mL) in data set [4] (14h); 125 µM (≈ 47.7 µg/mL) in data set [4] (21h). Further, the minimum inhibitory concentration (MIC) in [5] (24h) was > 125 µM; in [5] (48h) it was > 125 µM; in data set [6] (72h) it was > 125 µM; in [6] (120h), > 125 µM; in [8] (CCM4516, 24 h) it was > 125 µM; in data set [8] (CCM4516, 48 h), > 125 µM. Also, the minimum inhibitory concentration (MIC) in [9] (24 h) is > 125 µM; in [9] (48 h), > 125 µM; in [10] (H6966/08, 24 h) it was > 125 µM; in data set [10] (H6966/08, 48 h), > 125 µM; in [11] (SP.J14365/08, 24 h), > 125 µM; in data set [11] (SP.J14365/08, 48 h) it was > 125 µM. The same compound returned a half-inhibitory concentration (IC50) in data set [7] of 13.8 µM.
In the case of `O=C(N[C@@H](Cc1ccccc1)C(=O)Nc1cccc(Cl)c1)c1cc(Cl)ccc1O` [8f, N-{(1S)-1-benzyl-2-[(3-chlorophenyl)amino]-2-oxoethyl}-5-chloro-2-hydroxybenz-amide], the log k in [1] was 0.70 and 0.7098. Also, the minimum inhibitory concentration (MIC) in data set [2] (14h) worked out at 62.5 µM (≈ 26.8 µg/mL); in data set [2] (21h), 125 µM (≈ 53.7 µg/mL); in data set [3] (14h), 125 µM (≈ 53.7 µg/mL); in data set [3] (21h), 250 µM (≈ 107 µg/mL); in [4] (14h) it was 62.5 µM (≈ 26.8 µg/mL); in [4] (21h), 125 µM (≈ 53.7 µg/mL). Moreover, the MIC was 31.2 µM (≈ 13.4 µg/mL) in data set [5] (24h); 125 µM (≈ 53.7 µg/mL) in [5] (48h); 125 µM (≈ 53.7 µg/mL) in [6] (72h); 125 µM (≈ 53.7 µg/mL) in [6] (120h); > 500 µM in [8] (CCM4516, 24 h); > 500 µM in [8] (CCM4516, 48 h). The MIC in data set [9] (24 h) is > 500 µM; in data set [9] (48 h), > 500 µM; in [10] (H6966/08, 24 h), > 500 µM; in data set [10] (H6966/08, 48 h), > 500 µM; in [11] (SP.J14365/08, 24 h), > 500 µM; in data set [11] (SP.J14365/08, 48 h), > 500 µM. Also, the IC50 in data set [7] is 12.3 µM.
As to `CC(C)[C@H](NC(=O)c1ccc(Cl)cc1O)C(=O)Nc1ccc(Cl)cc1` [9c], the log k in data set [1] is given as 0.6839. For the same compound, the MIC stood at 62.5 µM (≈ 23.8 µg/mL) in [2] (14h); 62.5 µM (≈ 23.8 µg/mL) in data set [2] (21h); 62.5 µM (≈ 23.8 µg/mL) in data set [3] (14h); 125 µM (≈ 47.7 µg/mL) in data set [3] (21h); 62.5 µM (≈ 23.8 µg/mL) in [4] (14h); 62.5 µM (≈ 23.8 µg/mL) in [4] (21h). Further, the MIC in data set [5] (24h) was > 125 µM; in data set [5] (48h), > 125 µM; in data set [6] (72h), > 125 µM; in data set [6] (120h), > 125 µM; in data set [8] (CCM4516, 24 h), > 500 µM; in data set [8] (CCM4516, 48 h), > 500 µM. The MIC in data set [9] (24 h) was > 500 µM; in data set [9] (48 h), > 500 µM; in data set [10] (H6966/08, 24 h), > 500 µM; in data set [10] (H6966/08, 48 h), > 500 µM; in data set [11] (SP.J14365/08, 24 h), > 500 µM; in data set [11] (SP.J14365/08, 48 h) it was > 500 µM. Besides, half-maximal inhibition in data set [7] (IC50) required 23.8 µM.
Consider `CC(C)[C@@H](NC(=O)c1cc(Cl)ccc1O)C(=O)Nc1cccc(Cl)c1` [8e], for which the log k in data set [1] is 0.61 and 0.6114. Besides, the minimal inhibitory concentration (MIC) worked out at 32 µM (≈ 12.2 µg/mL) in data set [2] (14h); 62.5 µM (≈ 23.8 µg/mL) in [2] (21h); 62.5 µM (≈ 23.8 µg/mL) in data set [3] (14h); 125 µM (≈ 47.7 µg/mL) in data set [3] (21h); 62.5 µM (≈ 23.8 µg/mL) in data set [4] (14h); 125 µM (≈ 47.7 µg/mL) in data set [4] (21h). For the same compound, the minimum inhibitory concentration (MIC) in [5] (24h) amounted to 15.6 µM (≈ 5.96 µg/mL); in data set [5] (48h) it was 62.5 µM (≈ 23.8 µg/mL); in data set [6] (72h), 125 µM (≈ 47.7 µg/mL); in [6] (120h), 125 µM (≈ 47.7 µg/mL); in data set [8] (CCM4516, 24 h) it was 15.6 µM (≈ 5.96 µg/mL); in data set [8] (CCM4516, 48 h) it was 15.6 µM (≈ 5.96 µg/mL). In addition, the MIC in data set [9] (24 h) came out at 31.2 µM (≈ 11.9 µg/mL); in data set [9] (48 h), 31.2 µM (≈ 11.9 µg/mL); in [10] (H6966/08, 24 h), 31.2 µM (≈ 11.9 µg/mL); in data set [10] (H6966/08, 48 h), 31.2 µM (≈ 11.9 µg/mL); in data set [11] (SP.J14365/08, 24 h), 62.5 µM (≈ 23.8 µg/mL); in data set [11] (SP.J14365/08, 48 h), 250 µM (≈ 95.3 µg/mL). The compound also returned an IC50 in data set [7] of 20.4 µM.
